Values of other authors as cited in patent US7833744B2, “Methods to evaluate cytochrome P450 2C19 isoenzyme activity using a breath test” (Cambridge Isotope Laboratories, Inc., priority 2006, dated 2010).

Experiments:
[1] = system: platelets; details: healthy volunteers who carry CYP2C19*2 compared to CYP2C19*1*1 genotype
[2] = molecular target: CYP2C19 (Homo sapiens, UniProt P33261); details: in EMs
[3] = system: CYP2C19; details: PMs vs EMs

Sequence of CYP2C19 (Homo sapiens, UniProt P33261) (P33261 whole entry): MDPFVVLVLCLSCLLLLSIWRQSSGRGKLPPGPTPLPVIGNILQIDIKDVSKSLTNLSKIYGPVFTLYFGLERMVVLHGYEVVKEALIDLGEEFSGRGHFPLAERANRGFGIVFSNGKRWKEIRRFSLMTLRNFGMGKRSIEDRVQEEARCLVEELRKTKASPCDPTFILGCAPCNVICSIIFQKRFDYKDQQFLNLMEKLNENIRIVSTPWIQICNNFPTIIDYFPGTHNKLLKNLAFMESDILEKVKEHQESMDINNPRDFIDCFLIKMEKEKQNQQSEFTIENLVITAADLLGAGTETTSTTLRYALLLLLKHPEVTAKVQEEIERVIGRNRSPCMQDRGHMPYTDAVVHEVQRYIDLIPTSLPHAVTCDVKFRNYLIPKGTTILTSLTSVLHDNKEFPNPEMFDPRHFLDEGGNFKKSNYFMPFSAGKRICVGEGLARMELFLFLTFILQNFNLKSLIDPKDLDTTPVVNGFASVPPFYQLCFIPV

| SMILES | anti-platelet effect [1] | share of dose cleared by CYP2C19 [2] | exposure in PMs relative to EMs of CYP2C19 [3] |
| --- | --- | --- | --- |
| COC(=O)[C@H](c1ccccc1Cl)N1CCc2sccc2C1 [clopidogrel] | no anti-platelet effect |  |  |
| Cc1c(OCC(F)(F)F)ccnc1C[S+]([O-])c1nc2ccccc2[nH]1 (stereo not shown) [lansoprazole] |  | approximately 80% | about six-fold higher |
| COc1ccc2[nH]c([S+]([O-])Cc3ncc(C)c(OC)c3C)nc2c1 (stereo not shown) [omeprazole] |  | approximately 80% | about six-fold higher |
| COc1ccnc(C[S+]([O-])c2nc3ccc(OC(F)F)cc3[nH]2)c1OC (stereo not shown) [pantoprazole] |  | approximately 80% | about six-fold higher |
